One assay relates to COS-1 cells. Briefly: Anti-pTyr immunofluorescent staining of tyrosine phosphorylation in COS-1 cells. In kind it is cell-based, monkey. As to the method: COS-1, HeLa cells (Japanese Collection of Research Bioresources, Osaka), MCF-7 (provided by H. Saya), A431 (provided by M. N. Fukuda), HEK293 (provided by M. Tagawa), HCT116 (provided by T. Tomonaga), and SYF ([37]; provided by M. Okada and S. Nada) cells were cultured in Iscove's modified DME containing 5% fetal bovine serum (FBS). Cells were transiently transfected with 0.5 μg of plasmid vector using Trans IT Transfection reagent (Mirus) or with 1 μg of plasmid vector using linear polyethylenimine (25 kDa) (Polyscience, Inc.). For growth factor stimulation, COS-1 cells were starved under low serum conditions (0.05% FBS) for 24 h and restimulated with serum (5% FBS). For stimulation of endogenous SFKs, cells were treated with 3 mM Na3VO4 for 3 h, and SFK-mediated tyrosine phosphorylation was verified by treatment with 10 μM PP2 (SFK inhibitor; Calbiochem) or 100 nM wortmannin (PI3K inhibitor; Alomone Labs) for 21 h before Na3VO4 treatment. Na3VO4 was dissolved at 500 mM in 500 mM unbuffered HEPES before use. For preparation of stable transfectant clones, SYF cells transfected with c-Src-wt or Lyn-wt were selected in 333 μg/mL Zeocin (Invitrogen), and COS-1 cells were transfected with the BOSH2BGFP-N1 vector, which encodes GFP-tagged histone H2B ([39,40]; provided by H. Saya), were selected in 3 μg/mL blasticidin.
Confocal and Nomarski differential-interference-contrast images were obtained using a Fluoview FV500 confocal laser scanning microscope with a 40×1.00 NA oil and a 100×1.35 NA oil immersion objective (Olympus, Tokyo) and an LSM 510 confocal laser scanning microscope with a 63×1.40 NA oil immersion objective (Zeiss), as described. One planar (xy) section slice (0.6-μm thickness) is shown in all experiments. In brief, cells were fixed with 4% paraformaldehyde for 20 min, and permeabilized in phosphate-buffered saline (PBS) containing 0.1% saponin and 3% bovine serum albumin at room temperature. Cells were subsequently reacted with an appropriate primary antibody for 1 h, washed with PBS containing 0.1% saponin, stained with FITC- or TRITC-conjugated secondary antibody for 1 h. For DNA staining, cells were subsequently treated with 200 μg/ml RNase A for 1 h and 20 μg/ml propidium iodide (PI) for 30 min, and mounted with Prolong Antifade™ reagent (Molecular Probes). To ensure no bleed-through from the fluorescein signal into the red channel, fluorescein and rhodamine were independently excited at 488 nm and 543 nm, respectively. PI was excited at 488 or 543 nm. Emission signals were detected between 505 and 525 nm for fluorescein, at more than 560 nm for rhodamine and more than 610 nm for PI [44]. Composite figures were prepared using Photoshop 5.0 and Illustrator 9.0 software (Adobe). For nuclear staining with anti-pTyr, anti-ATF-2 pT69/71, and anti-histone H3K4me3 antibodies, cells were in situ extracted with 0.5% Triton X-100 at 4° C. for 3 min before fixation with 4% paraformaldehyde. For HP1α staining, cells were fixed in 100% methanol at −20° C. for 10 min followed by permeabilization for 30 min in PBS containing 0.1% Triton X-100 at room temperature. Cells were reacted with anti-HP1α antibody for 1 h at room temperature, washed with PBS four times, and stained with secondary antibody for 1 h. Fluorescence intensity plots of anti-histone H3K4me3, anti-ATF-2 pT69/71 and anti-HP1α antibody and PI staining (see FIGS. 18B, 19B, and 20B, respectively) were generated using Fluoview version 4.3 software (Olympus, Tokyo). […]

Assay [1] deals with SYF cells. Briefly: Quantitation of chromatin condensation levels (S.D. value of PI intensity per pixel) in SYF cells. The class given is cell-based, mouse. The conditions noted are these: 3 mM Na3VO4 for 3 h. As for the experimental part:
(§1) COS-1, HeLa cells (Japanese Collection of Research Bioresources, Osaka), MCF-7 (provided by H. Saya), A431 (provided by M. N. Fukuda), HEK293 (provided by M. Tagawa), HCT116 (provided by T. Tomonaga), and SYF ([37]; provided by M. Okada and S. Nada) cells were cultured in Iscove's modified DME containing 5% fetal bovine serum (FBS). Cells were transiently transfected with 0.5 μg of plasmid vector using Trans IT Transfection reagent (Mirus) or with 1 μg of plasmid vector using linear polyethylenimine (25 kDa) (Polyscience, Inc.). For growth factor stimulation, COS-1 cells were starved under low serum conditions (0.05% FBS) for 24 h and restimulated with serum (5% FBS). […]
(§2) Confocal and Nomarski differential-interference-contrast images were obtained using a Fluoview FV500 confocal laser scanning microscope with a 40×1.00 NA oil and a 100×1.35 NA oil immersion objective (Olympus, Tokyo) and an LSM 510 confocal laser scanning microscope with a 63×1.40 NA oil immersion objective (Zeiss), as described. […] Emission signals were detected between 505 and 525 nm for fluorescein, at more than 560 nm for rhodamine and more than 610 nm for PI [44]. […] Fluorescence intensity plots of anti-histone H3K4me3, anti-ATF-2 pT69/71 and anti-HP1α antibody and PI staining (see FIGS. 18B, 19B, and 20B, respectively) were generated using Fluoview version 4.3 software (Olympus, Tokyo). […]

Assay [2] relates to SYF cells. As to the kind of experiment: Anti-pTyr immunofluorescent staining of tyrosine phosphorylation in SYF cells. The class given is cell-based, mouse. The conditions noted are these: 3 mM Na3VO4 for 3 h, FIG. 46. As to the method: as §1, §2

Each structure is given as a SMILES string. Entries after “also recorded” stand apart in the source; their conditions may differ.

Here are results for two molecules from US10072304B2, “Nuclear localization of Src-family tyrosine kinases is required for growth factor-induced euchromatinization” (National University Corporation Chiba University, priority 2009, dated 2018).

Turning to `[Na+].[Na+].[Na+].[O]=[V]([O-])([O-])[O-]` [Na3VO4, sodium orthovanadate], the “tyrosine phosphorylation throughout the cell” value with COS-1 cells (3 mM Na3VO4 for 3 h, FIG. 23) is “greatly increased”. Further, in the assay on COS-1 cells (Na3VO4, in situ extraction with 0.5% Triton X-100 before fixation, FIGS. 24 and 25), the “tyrosine phosphorylation within the nucleus” value was “increase in tyrosine phosphorylation induced by Na3VO4 was clearly visible”. Also, the “levels of chromatin hypo- and hypercondensation” value in the assay with SYF cells [1] (SYF cells, FIG. 49) was “much lower than those in Na3VO4-treated COS-1 cells; also recorded: modestly induced”. Besides, in the assay with SYF cells [1] (SYF/c-Src-wt cells, FIGS. 48A and 49), the “chromatin hypo- and hypercondensation” value is “an increase”. Further, the tyrosine phosphorylation entry with SYF cells [2] is “increased tyrosine phosphorylation at levels comparable to those in COS-1 cells”.
In the case of `CC(C)(C)n1nc(-c2ccc(Cl)cc2)c2c(N)ncnc21` [PP2], the “basal levels of tyrosine phosphorylation” value in the assay with COS-1 cells (10 μM PP2 or 100 nM wortmannin for 24 h, FIG. 22) is listed as “significantly reduce”. The “tyrosine phosphorylation in Na3VO4-treated cells” value with COS-1 cells (10 μM PP2 pretreatment 21 h, then 3 mM Na3VO4 3 h, FIG. 23) was “decreased”. The “Na3VO4-induced increase in nuclear tyrosine phosphorylation” value in the assay on COS-1 cells (PP2 plus Na3VO4, in situ extraction with 0.5% Triton X-100, FIGS. 24 and 25) is on record as “significantly inhibited”.
